Test results from patent US20060100226A1, “2-Thiopyrimidinones as therapeutic agents” (priority 2004, published 2006).
pIC50: −log10 of the molar value.

Columns and labels:
murine MEKK2 (mMEKK2) [1] = biological target: T1, murine MEKK2 (mMEKK2) (Mus musculus, UniProt Q61083); assay: MEKK2 PhosphoELISA (mMEKK2/MKK4); format: biochemical; settings: substrate MKK4/SKK1 (unactive), ATP final 10 μM, O.D. 450 nm
T1 sequence (Q61083 1-619): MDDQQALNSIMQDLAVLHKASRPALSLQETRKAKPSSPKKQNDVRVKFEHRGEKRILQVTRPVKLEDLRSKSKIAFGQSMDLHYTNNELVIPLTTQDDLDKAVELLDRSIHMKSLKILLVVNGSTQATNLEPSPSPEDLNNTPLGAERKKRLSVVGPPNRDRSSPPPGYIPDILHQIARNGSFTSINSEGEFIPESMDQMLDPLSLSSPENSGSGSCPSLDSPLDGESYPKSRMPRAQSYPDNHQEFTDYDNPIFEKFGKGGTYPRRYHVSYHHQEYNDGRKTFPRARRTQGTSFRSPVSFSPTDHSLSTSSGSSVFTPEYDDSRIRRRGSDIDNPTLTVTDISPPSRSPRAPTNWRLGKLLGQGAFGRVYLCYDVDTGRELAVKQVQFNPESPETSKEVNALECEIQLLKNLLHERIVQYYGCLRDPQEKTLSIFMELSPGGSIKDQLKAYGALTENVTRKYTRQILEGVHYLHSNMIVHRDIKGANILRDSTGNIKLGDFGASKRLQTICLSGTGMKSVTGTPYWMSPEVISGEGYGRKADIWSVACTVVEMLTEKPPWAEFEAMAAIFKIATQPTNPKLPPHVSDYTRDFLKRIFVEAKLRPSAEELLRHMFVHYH
Text: Another useful method for assessing protein kinase inhibition, and specifically MEKK2 inhibition, of compounds of the invention involves the MEKK2 phospho-antibody enzyme-linked immunosorbent assay (PhosphoELISA). This screening panel, which involves relatively few steps, is a useful indicator of potential inhibitors of MEKK2. Reactions to murine MEKK2 are observed as optical density measurements at an absorbance of 450 nm. Inhibitory activities can be expressed in terms of IC50, where IC50 is the molar concentration of compound required to inhibit protein kinase binding by 50%.
A phospho-antibody enzyme-linked immunosorbent assay (PhosphoELISA) was used to screen potential inhibitors of MEKK2. The assay was performed as follows: Compounds to be tested were weighed and solubilized in DMSO (Sigma) to a stock concentration of 10 mM. Serial dilutions starting from 1 mM were prepared with additional DMSO. These dilutions were further diluted to 250 μM in kinase reaction buffer [20 mM Hepes pH 7.5, 5 mM MgCl2, 1 mM DTT (Dithiothreitol-Sigma), 1 mM NaVO4 (sodium vanadate- Sigma). A 25 μl aliquot of this solution was transferred to a glutathione coated 96-well microplate (Pierce). A stock aliquot containing 50-125 ng of murine MEKK2 (mMEKK2) was added to each well and incubated on the microplate for 10 minutes at room temperature. A 25 μl solution of MKK4/SKK1 (unactive) was diluted 1:200 in kinase assay buffer and added to the reaction plate followed by 50 μl of 25 μM ATP (adenosine triphosphate) to afford a final well concentration of 10 μM. The reaction was allowed to proceed for 60 minutes at room temperature before washing 3 times with wash buffer [100 mM phosphate pH 7.5, 0.05% TWEEN 20 (Sigma)]. A solution of anti-phospho MKK4/SEK1 antibody (Calbiochem) and biotin anti rabbit IgG (Jackson Immunoresearch) was diluted 1:2500 in kinase reaction buffer and added to the appropriate wells. The reaction was incubated for 60 minutes at room temperature. The microplate was washed 3 times with wash buffer and 100 ul of streptavidin horseradish peroxidase (HRP-Pierce) was added and incubated for 30 minutes at room temperature. The microplate was washed 3 times with wash buffer and 100 μl of TMB (3,3′,5,5′-tetramethylbenzidine-Sigma) was added. The assay was allowed to develop for 15-20 minutes then the reaction was stopped with the addition of 100 μl of 0.2 N sulfuric acid. The optical density (O.D.) of the plate was read on the Victor™ plate reader using the absorbance at 450 nm.

murine MEKK2 (mMEKK2) [2] = biological target: T1, murine MEKK2 (mMEKK2); assay: TR-FRET kinase assay (mMEKK2/MBP); format: biochemical; settings: substrate biotin MBP, 60 minutes at room temperature
Description: In one approach, MEKK2 inhibitory activity of compounds of the invention can be assessed using the time-resolved Fluorescence Resonance Energy Transfer (TR-FRET) assay detailed in Example 5. In this assay, the excitation energy of one fluorescent molecule (the donor) is transferred by a resonance mechanism to a nearby second fluorescent molecule (the acceptor), which then releases its fluorescent energy through fluorescent emission. This fluorescent energy is measured using a time-resolved fluorescence measurement protocol (LANCE high count 615/665); excitation occurred with 1,000 flashes at 325 nm, measurement was delayed by 100 μs, and data were acquired for 50 μs at 615 and 665 nm.
A TR-FRET kinase assay was used to screen potential inhibitors of MEKK2. The assay was performed as follows: Compounds to be tested were weighed and solubilized in DMSO (Sigma) to a stock concentration of 10 mM. Serial dilutions starting from 1 mM were prepared with additional DMSO. These dilutions were further diluted to 250 μM in kinase reaction buffer [20 mM Hepes pH 7.5, 5 mM MgCl2, 1 mM DTT (Dithiothreitol-Sigma), 1 mM NaVO4 (sodium vanadate-Sigma). A 25 μl aliquot of this solution was transferred to a black 96-well nonbinding surface microplate (Fisher). A stock aliquot containing […] of murine MEKK2 (mMEKK2) was diluted in the kinase reaction buffer and incubated with the compounds on the microplate for 10 minutes. A 25 μl aliquot of a 138 ng solution of biotin MBP (myelin basic protein—Upstate Biotechnology) was added to the reaction followed by 25 ul of a 25 ng solution of anti-phospho MBP antibody (Upstate Biotechnology) diluted in kinase reaction buffer. Finally an aliquot (50 μl) of a 5 uM solution of ATP (adenosine triphosphate) was added and the reaction was allowed to proceed for 60 minutes at room temperature. The reaction was stopped by the addition of 50 μL of a 12.5 ng solution of europium labeled anti-mouse IgG (Perkin Elmer) and 45 ng of Cy5 labeled streptavidin (Jackson Immunoresearch) in termination buffer (20 mM Hepes pH 7.5, 100 mM EDTA; Sigma). The assay was allowed to equilibrate for 45 minutes before placing the plate on the Victor™ plate reader. The plate was read using the 615/665 LANCE protocol.

Structure (SMILES) | pIC50 (murine MEKK2 (mMEKK2) [1]) | pIC50 (murine MEKK2 (mMEKK2) [2])
N#Cc1c(-c2ccc(-c3cc4ccccc4s3)cc2)nc(SCc2cccc(NC(=O)c3ccc(Cl)c(Cl)c3)c2)[nH]c1=O [Example 2aa, N-{3-[4-(4-Benzo[b]thiophen-2-yl-phenyl)-5-cyano-6-oxo-1,6-dihydro-pyrimidin-2-ylsulfanylmethyl]-phenyl}-3,4-dichloro-benzamide] | > 6.00 | 
N#Cc1c(-c2cccc(OC(F)(F)F)c2)nc(SCc2cccc(NC(=O)c3ccc(Cl)c(Cl)c3)c2)[nH]c1=O [Example 2cc, 3,4-Dichloro-N-{3-[5-cyano-6-oxo-4-(3-trifluoromethoxy-phenyl)-1,6-dihydro-pyrimidin-2-ylsulfanylmethyl]-phenyl}-benzamide] | > 6.00 | 
CC(C)(C)OC(=O)n1c(-c2cccc(-c3nc(SCc4cccc(NC(=O)c5ccc(Cl)c(Cl)c5)c4)[nH]c(=O)c3C#N)c2)cc2ccccc21 [Example 2jj, 2-(3-{5-Cyano-2-[3-(3,4-dichloro-benzoylamino)-benzylsulfanyl]-6-oxo-1,6-dihydro-pyrimidin-4-yl}-phenyl)-indole-1-carboxylic acid tert-butyl ester] | > 6.00 | 
N#Cc1c(-c2cccc(-c3cc4ccccc4[nH]3)c2)nc(SCc2cccc(NC(=O)c3ccc(Cl)c(Cl)c3)c2)[nH]c1=O [Example 2kk, 3,4-Dichloro-N-(3-{5-cyano-4-[3-(1H-indol-2-yl)-phenyl]-6-oxo-1,6-dihydro-pyrimidin-2-ylsulfanylmethyl}-phenyl)-benzamide] | > 5.30 | 
N#Cc1c(-c2c[nH]c3ccccc23)nc(SCc2cccc(NC(=O)c3ccc(Cl)c(Cl)c3)c2)[nH]c1=O [Example 2ll, 3,4-Dichloro-N-{3-[5-cyano-4-(1H-indol-3-yl)-6-oxo-1,6-dihydro-pyrimidin-2-ylsulfanylmethyl]-phenyl}-benzamide] | > 5.30 | 
N#Cc1c(-c2c[nH]c3ccc(Br)cc23)nc(SCc2cccc(NC(=O)c3ccc(Cl)c(Cl)c3)c2)[nH]c1=O [Example 2mm, N-{3-[4-(5-Bromo-1H-indol-3-yl)-5-cyano-6-oxo-1,6-dihydro-pyrimidin-2-ylsulfanylmethyl]-phenyl}-3,4-dichloro-benzamide] | > 6.00 | 
N#Cc1c(-c2cccc(Br)c2)nc(SCc2cccc(NC(=O)c3ccc(Cl)c(Cl)c3)c2)[nH]c1=O [Example 2nn, N-{3-[4-(3-Bromo-phenyl)-5-cyano-6-oxo-1,6-dihydro-pyrimidin-2-ylsulfanylmethyl]-phenyl}-3,4-dichloro-benzamide] | > 6.00 | 
COc1cccc(-c2nc(SCc3cccc(NC(=O)c4ccc(F)c(F)c4)c3)[nH]c(=O)c2C#N)c1 [Example 2oo, N-{3-[5-Cyano-4-(3-methoxy-phenyl)-6-oxo-1,6-dihydro-pyrimidin-2-ylsulfanylmethyl]-phenyl}-3,4-difluoro-benzamide] | > 5.30 | 
COc1cccc(-c2nc(SCc3cccc(NC(=O)Nc4ccc(Cl)c(Cl)c4)c3)[nH]c(=O)c2C#N)c1 [Example 3a, 1-{3-[5-Cyano-4-(3-methoxy-phenyl)-6-oxo-1,6-dihydro-pyrimidin-2-ylsulfanylmethyl]-phenyl}-3-(3,4-dichloro-phenyl)-urea] | > 6.00 | 

The remaining lines, values ahead:

pIC50 (murine MEKK2 (mMEKK2) [1]) | pIC50 (murine MEKK2 (mMEKK2) [2]) | Structure (SMILES)
< 4.40 |  | COc1cccc(-c2nc(SCc3cccc(NCc4cccc(OCCN(C)C)c4)c3)[nH]c(=O)c2C#N)c1 [Example 4a]
4.70 |  | CN(CCOc1ccc(-c2nc(SCc3cccc(NC(=O)c4ccc(Cl)c(Cl)c4)c3)[nH]c(=O)c2C#N)cc1)c1ccncc1 [Example 4aa]
< 4.40 |  | COc1cccc(-c2nc(SCc3cccc(NCc4cnc(O)nc4O)c3)[nH]c(=O)c2C#N)c1 [Example 4d]
< 4.40 |  | CCc1nc(C)c(-c2nc(SCc3cccc(NC(=O)c4ccc(Cl)c(Cl)c4)c3)[nH]c(=O)c2C#N)[nH]1 [Example 4dd]
< 4.40 |  | COc1cccc(-c2nc(SCCCn3cnc4c(NC(=O)c5ccccc5)ncnc43)[nH]c(=O)c2C#N)c1 [Example 4ee]
< 4.40 |  | COc1cccc(-c2nc(SCCCn3cnc(NC(=O)c4ccc(Cl)c(Cl)c4)n3)[nH]c(=O)c2C#N)c1 [Example 4ff]
 | < 4.40 | N#Cc1c(-c2cccc(O)c2)nc(SCc2cccc(NCC3CCN(c4ccncc4)CC3)c2)[nH]c1=O [Example 4k]
 | > 5.30 | N#Cc1c(-c2cccc(O)c2)nc(SCc2cccc(NC(=O)c3ccc(Cl)c(Cl)c3)c2)[nH]c1=O [Example 4l]
> 4.70 |  | N#Cc1c(-c2cccc(C(=O)O)c2)nc(SCc2cccc(NC(=O)c3ccc(Cl)c(Cl)c3)c2)[nH]c1=O [Example 4m]
 | > 5.30 | N#Cc1c(-c2cccc(F)c2)nc(SCc2cccc(NC(=O)c3ccc(Cl)c(Cl)c3)c2)[nH]c1=O [Example 4o]
> 5.30 |  | N#Cc1c(-c2cccc(S(=O)(=O)NCc3ccccc3)c2)nc(SCc2cccc(NC(=O)c3ccc(Cl)c(Cl)c3)c2)[nH]c1=O [Example 4p]
> 6.00 |  | N#Cc1c(-c2cccc(-n3cccc3)c2)nc(SCc2cccc(NC(=O)c3ccc(Cl)c(Cl)c3)c2)[nH]c1=O [Example 4q]
> 5.30 |  | N#Cc1c(-c2ccc(-n3ccnc3)cc2)nc(SCc2cccc(NC(=O)c3ccc(Cl)c(Cl)c3)c2)[nH]c1=O [Example 4r]
> 6.00 |  | N#Cc1c(-c2ccc(-n3cccc3)cc2)nc(SCc2cccc(NC(=O)c3ccc(Cl)c(Cl)c3)c2)[nH]c1=O [Example 4s]
> 4.70 |  | N#Cc1c(-c2ccc(-n3cccn3)cc2)nc(SCc2cccc(NC(=O)c3ccc(Cl)c(Cl)c3)c2)[nH]c1=O [Example 4t]
> 5.00 |  | N#Cc1c(-c2cccc(-n3ccnc3)c2)nc(SCc2cccc(NC(=O)c3ccc(Cl)c(Cl)c3)c2)[nH]c1=O [Example 4u]
> 6.00 |  | N#Cc1c(-c2cccc(N3CCCC3)c2)nc(SCc2cccc(NC(=O)c3ccc(Cl)c(Cl)c3)c2)[nH]c1=O [Example 4w]
< 4.40 |  | CCOC(=O)C1CCN(c2ccccc2-c2nc(SCc3cccc(NC(=O)c4ccc(Cl)c(Cl)c4)c3)[nH]c(=O)c2C#N)CC1 [Example 4x]
 | > 5.30 | N#Cc1c(-c2cccc(NCC[C@@H](O)[C@@H](O)CO)c2)nc(SCc2cccc(NC(=O)c3ccc(Cl)c(Cl)c3)c2)[nH]c1=O [Example 4y]
